# Assay results as given in PMC9818267, “Brain Natriuretic Peptide Protects Cardiomyocytes from Apoptosis and Stimulates Their Cell Cycle Re-Entry in Mouse Infarcted Hearts” (Cells, 2022).
# No end group written: not given here.
# Columns and labels:
# [1] = system: cardiomyocytes (CMs); assay: Immunostaining of cell cycle markers (BrdU, Ki67, pH3, Aurkb) in CMs of BNP-treated hearts; type: in vivo, mouse
# Description: For all experiments with adult mice, BrdU (1 mg/mL) was added into the drinking water during the entire period of the experiments. BrdU (40 µL/mice, 10 mg/mL) was ip injected in newborn mice on day 5 and 9 after birth.
# Cells or OCT heart sections (5 µm-thick cryosections) were washed in PBS 1X and fixed in paraformaldehyde (2%) or formol (4%) for 10 min at RT. After 10 min of permeabilization (0.3% Triton x-100 in PBS) and one hour of blocking with normal serum, sections were probed with primary antibodies overnight at 4 °C (Supplementary File S1). The second day, the secondary antibody was added on cells or heart sections. Slides were mounted with Dabco (Sigma) and pictures were captured with Nikon Eclipse TS100 or 90i microscope. Images were processed with Adobe Photoshop CC2015.
# For the detection of BrdU incorporation, heart slides were fixed 10 min in 2% PFA, DNA was denatured 1 h at RT in HCl 2N before neutralization in Na Borate 0.1 M pH = 8.5 during 2 × 5 min. Then, sections were probed with primary antibodies overnight at 4 °C (Supplementary File S1).
# [2] = system: phospholamban (PLB); assay: Western blot pPLB/PLB in adult CMs stimulated in vitro; type: cell-based, mouse; details: adult CMs stimulated with BNP for 2–3 h in vitro, vs untreated
# Description: CM isolations were performed thanks to the Langendorff-Free method. […] Thereafter, the heart was removed from the chest and the left ventricle was perfused with enzymatic solution containing collagenase II (120 U/mL), collagenase IV (120 U/mL) (Worthington, Biochemical Corporation, USA) and protease XIV (0.05 mg/mL or 0.175 U/mL) (Sigma-Aldrich, Merck, Darmstadt, Germany). In each experiment, a full digestion of the heart was obtained. After digestion, cardiac cells were dissociated by gentle pipetting, filtered and collected after 25 min sedimentation. For infarcted hearts, the tissue was separated into the three zones (ZI, BZ and RZ). The three different areas were weighted before gentle pipetting.
# Total proteins were extracted from CMs isolated from adult infarcted and unmanipulated neonatal and adult hearts. Proteins were transferred to nitrocellulose membranes (Biorad) before incubation with primary antibodies overnight at 4 °C. Secondary antibodies were added 1 h at RT in the dark (Supplementary File S1). The signal was detected and quantified with the Odyssey infrared imaging system (LI-COR. Biosciences, Bad Homburg, Germany). All results were normalized to the tubulin protein level or to the total protein level thanks to stainings with the Revert 700 Total protein Stain (LI-COR).
# [3] = system: DAPI+ Troponin I+ cells; assay: Flow cytometry of apoptotic CMs (DAPI+ Troponin I+ cells) after isolation; type: in vivo, mouse; details: CMs isolated from adult hearts injected during 2 weeks with BNP; saline 3.5 ± 0.5%
# [4] = system: cardiomyocytes (CMs); assay: qRT-PCR on CMs isolated from treated hearts; type: in vivo, mouse; details: CMs from border area of infarcted hearts 10 days after surgery, BNP vs saline
# [5] = system: cardiomyocytes (CMs); details: adult CMs from unmanipulated BNP-treated hearts vs saline, p = 0.008; cited from earlier work
# Source text: The percentages of mononucleated CMs increased in all the BNP-treated hearts (Figure 2B,E,G).
# [6] = cited from earlier work
# Source text: In previous work, we highlighted the cardioprotective effect of BNP intraperitoneal (ip) injections in infarcted mice. Contractility increased twofold and heart remodeling (the percentage of changes of the left ventricle volume) decreased (−79%, p = 0.04) 4 weeks after MI in BNP-treated mice when compared to saline-injected mice. At the cellular level, BNP injections decreased the infarct size by 20% and reduced fibrosis. At least a part of the BNP positive effect in infarcted mice is due to increased cardiac angiogenesis and vasculogenesis. Indeed, BNP stimula ... || The concentrations of BNP used in this study were already shown to stimulate the mobilization, proliferation and differentiation of the endothelial precursor cells. In our first work, we verified that these concentrations have no impact on blood pressure, heart rate and cardiac output. In contrast, these BNP concentrations decrease the heart remodeling, the left ventricular volume and left ventricular end diastolic diameter and increase by 2-fold the contractility, 4 weeks after MI [11]. Furthermore, at the cellular level, these BNP concentrations increase the number of ca ...
# [7] = system: cGMP; details: BNP-treated infarcted mice, cited from earlier work
# Description: In previous work, we followed the BNP kinetic by measuring the cGMP level in the hearts and plasma of BNP-treated infarcted mice. 30 min after BNP injections, the cGMP level is increased in the hearts of treated mice and returns to normal 1 h after injection. In the circulation of treated mice, cGMP level is increased from 1 h to 24 h after ...
# [8] = infarct and border area 10 days after MI, BNP vs saline
# [9] = neonatal BNP-treated hearts vs saline
# [10] = unmanipulated adult hearts, BNP vs saline
substance,measurement,setting,value
"Brain Natriuretic Peptide (SQGSTLRVQQRPQNSKVTHISSCFGHKIDRIGSVSRLGCNALKLL; not fully specified; ends and bridges not checked; UniProt P40753 77-121, looked up) [BNP, synthetic mouse BNP (1–45) peptide (Bachem, catalog number H-7558)]",increase of percentage of BrdU+ GFP+ α actinin+ cells among GFP+ α actinin+ cells,"[1]; ZI+BZ of infarcted Myh6 MerCreMer mice injected with tamoxifen, BNP vs saline",20%
same,increase of percentage of CMs expressing Aurkb,[1]; [8],2.8 ×
same,increase of percentage of CMs expressing Ki67,[1]; [8],50%
same,increase of percentage of CMs expressing pH3,[1]; [8],40%
same,increase of percentage of CMs incorporating BrdU,[1]; [8],70%
same,number of Aurkb+ CMs undergoing cytokinesis or binucleation,"[1]; infarcted hearts, among Aurkb+ CMs, BNP vs saline",slightly increased
same,increase of number of Aurkb+ CMs undergoing cytokinesis or binucleation,[1]; [9],1.4 fold
same,increase of number of CMs expressing Aurkb,[1]; [9],47.5%
same,increase of number of CMs expressing Ki67,[1]; [9],15%
same,increase of number of CMs expressing pH3,[1]; [9],41%
same,increase of number of CMs incorporating BrdU,[1]; [9],23%
same,increase of percentage of CMs expressing pH3,[1]; [10],94%
same,increase of percentage of CMs incorporating BrdU,[1]; [10],67%
same,pPLB/PLB ratio increase,[2],2.1 ×
same,percentage of DAPI+ CMs,[3],4 ± 1%
same,myh7 mRNA level increase,[4],2.7 ×
same,CM cross-sectional area change,[5],−6%
same,heart remodeling (percentage of changes of the left ventricle volume) change,"[6]; 4 weeks after MI, BNP vs saline, p = 0.04",−79%
same,contractility increase,"[6]; 4 weeks after MI, BNP vs saline",twofold
same,"impact on blood pressure, heart rate and cardiac output",[6]; BNP concentrations used in this study,no impact
same,decrease of infarct size,[6]; BNP injections in infarcted mice,20%
same,cGMP level in the hearts,"[7]; 30 min after injection, returns to normal 1 h after injection",increased
same,cGMP level in the circulation,[7]; from 1 h to 24 h after injections,increased
